Where a SMILES comes first, the peptide text is derived from it. The star is where a group is joined. X1 = O=C(CCCCSc1[nH]cnc2ncnc1-2)*; NHtBu = CC(C)(C)N*

Experimental findings from the OPERA property sets (Mansouri et al. 2018) are described below.

As for `CCC(=O)OC(C(=O)NC1C(=O)N2C(C(=O)O)=C(C)CSC12)c1ccccc1` (configuration not stated), the logP (as a rule, the decadic logarithm of the partition coefficient of the neutral form, usually between octanol and water) turned out to be 1.47. With `CCN(CC)S(=O)(=O)N(CC)C1C=C2c3cccc4[nH]cc(c34)CC2N(C)C1` (configuration not stated) the figure was 3.09. For the molecule `CNC(=NC#N)NCCSCc1ncn(COC(=O)C(C)(C)C)c1C`, the logP is 1.81. With `C=C(C)c1c(OC)cc(Cc2cnc(N)nc2N)cc1OCC` the figure was 2.65; with `NS(=O)(=O)c1cc(S(=O)(=O)c2ccc(CN3CCOCC3)cc2)cs1`, 0.98; with `CC1OC(OC2C(C)OC(OC3C(C)OC(OC4CCC5(C)C(CCC6C5CCC5(C)C(C7=CC(=O)OC7)C(OC=O)CC65OC=O)C4)CC3OC=O)CC2OC=O)CC(O)C1OC=O` (configuration not stated), 3.16. For the molecule `CC(C)(C)C(=O)OCn1cc2c(=O)[nH]cnc2n1`, the logP is 0.79. On to `CC(=O)NC(CC(C)C)C(=O)NC(Cc1ccccc1)C(=O)NC(CCCNC(=N)N)C(N)=O` (stereo not drawn) (Ac-Leu-Phe-Arg-NH2; configuration not given here), for which the logP is -0.12.

`CN(C)N=Nc1ccc(C(F)(F)F)cc1` had a logP of 4. The figure for `Cc1nccc2c1[nH]c1ccccc12` is 3.1. With `CCOc1ccc(C2(C(=O)OC)CC(F)(F)C2(F)F)cc1` (configuration not stated) the figure was 4.06; with `CCCCOC(=O)n1cc(F)c(=O)[nH]c1=O`, 0.89; with `CC(C)(N=C(O)C(Br)C(C)(C)C)c1ccccc1` (configuration not stated), 3.47. Consider `CC(=O)NC(CCCN)C(=O)NC(Cc1ccccc1)C(N)=O` (configuration not stated), for which the logP came to 0.41. Regarding `CCc1ncc([N+](=O)[O-])n1C`, the logP worked out at 0.68. `Nc1nc(Sc2ccc(Cl)cc2)nc(C(Cl)(Cl)Cl)n1`: the log partition coefficient (logP) turned out to be 4.51. With `CC(=O)OC1C(=O)C2(C)C(O)CC3OCC3(OC(C)=O)C2C(OC(=O)c2ccccc2)C2(O)CC(OC(=O)C(O)CNC(=O)c3ccccc3)C(C)=C1C2(C)C` (configuration not stated) the figure was 1.75; with `Cn1nnnc1SCC1=C(C(=O)OCOC(=O)C(C)(C)C)N2C(=O)C(NC(=O)Cc3csc(N)n3)C2SC1` (configuration not stated), 1.36.

`O=[N+]([O-])C=C1NCCN1Cc1ccccn1`: the logP was -0.87.

On to `O=C(Cn1c(=O)sc2ccc(Cl)cc21)N1CCN(CCOS(=O)(=O)O)CC1`, for which the lipophilicity (logP) is -1.47. With `CNC(=C[N+](=O)[O-])NCCSCc1nccs1` the figure was -0.15.

The molecule `CC1CN(c2cc3c(cc2F)c(=O)c(C(=O)O)cn3-c2ccc(F)cc2F)CCN1` (configuration not stated) had a logP of -0.2.

Consider `Cc1ncc([N+](=O)[O-])n1CCSC(=S)N(C)C`, for which the logP was determined as 1.28. With `CCOC(=O)CNC(=O)CNC(=O)CNC(=O)CNC(=O)CCCCSc1[nH]cnc2ncnc1-2` (X1-GGGG-OEt) the figure was -0.23; with `CNC(=O)C=C(C)OP(=O)(OC)OC`, -0.2; with `CC(=O)N(CC(O)CO)c1c(I)c(C(=O)NCCO)c(I)c(C(=O)NCCO)c1I` (configuration not stated), -1.86. With `CCC(C)NC(=O)C(=Cc1ccccc1)Cc1ccccc1` (configuration not stated) the figure was 3.99; with `CCCCOc1ccc(OCC(OC(=O)n2ccnc2)C(C)(C)C)cc1` (configuration not stated), 4.29.

On to `CCCCOC(=O)c1cnc2n(c1=O)C(C)CCC2` (configuration not stated), for which the logP was determined as 1.77. With `CC1CC2C3CCC4=CC(=O)C=CC4(C)C3(F)C(O)CC2(C)C1(O)C(=O)NCCO` (configuration not stated) the figure was 1.51; with `C#CCOc1c(Cl)cc(NC=NOCC(=O)OCC)cc1Cl`, 3.6; with `O=C(O)C(OCc1ccccc1)c1ccccc1` (configuration not stated), 2. With `O=c1nc(N=CN2CCOCC2)ccn1C1CC(O)C(CO)O1` (configuration not stated) the figure was -1.54. The figure for `CC12CCC(=O)C=C1CC(C#N)C1C2CCC2(C)C1CCC21CCC(=O)O1` (configuration not stated) is 1.67; for `CC(C)(C)C(=O)CC(C(O)C(C)(C)C)n1cncn1` (configuration not stated) it is 1.95. Molecule `O=[N+]([O-])C=C1NCCN1Cc1ccccc1` registered a logP of 0.33. The figure for `COCCCNC(=O)C(F)(F)Cn1cnc([N+](=O)[O-])n1` is 0.01; for `CCC1COC(Cn2cncn2)(c2ccc(NC(=O)NC)cc2)O1` (configuration not stated) it is 0.62. The figure for `CC(=O)NC(Cc1ccccc1)C(=O)NC(CCCCN)C(N)=O` (configuration not stated) is 0.14. For the molecule `O=C(O)c1cccc2cccc(C(=O)O)c12`, the log partition coefficient (logP) was found to be 1.98. The molecule `CCOC(=O)Cn1ccnc1C=Cc1ccc([N+](=O)[O-])o1` showed a logP of 1.27. With `O=c1cccccc1` the figure was 0.26; with `Cc1nc([N+](=O)[O-])c(Cl)n1C`, 0.34; with `C=CCC1CN(C)CCC1(OC(=O)CC)c1ccccc1` (configuration not stated), 2.97.

The molecule `C=Cc1ncc([N+](=O)[O-])n1C` yielded a logP of 0.62. On to `Cc1ncc(CO)c(COCCC(C)C)c1O`, for which the logP was found to be 0.83.

As for `COCCN1CCc2cccc(Cl)c2CC1`, the log partition coefficient (logP) turned out to be 3. Regarding `Cc1cc(Cl)cc(Cl)c1`, the logP stood at 3.99. The figure for `CCOc1ccccc1OCc1ccccc1CCCN1CCC(O)CC1` is 3.1; for `CC(=NNC(=S)NNC(=S)Nc1ccccc1Cl)c1ccccn1` it is 2.67.

Molecule `Cc1cc(OCCN(C)C)c(C(C)C)cc1OS(=O)(=O)C12CCC(CC1=O)C2(C)C` (configuration not stated) gave a logP of 4.37. With `OCC1CC(F)C(n2cnc3c(Br)ncnc32)O1` (configuration not stated) the figure was 0.44.

`Cc1cc(=O)[nH]c(=O)[nH]1`: the logP is -0.77.

With `Cc1ccc(-n2ccc(=O)c(O)c2C)cc1`, the log partition coefficient (logP) stood at 1.72. Molecule `Clc1ccc(-c2c(Cl)ccc(Cl)c2Cl)c(Cl)c1Cl` yielded a logP of 7.04. The figure for `CC(C)(C)N(NC(=O)c1ccccc1F)C(=O)c1ccccc1Cl` is 2.63; for `CN(CO)c1nc(N(C)CO)nc(N(C)CO)n1` it is 0.4.

In turn, `CCN(C=Nc1ccn(C2OC(CO)C(O)C2O)c(=O)n1)CC` (configuration not stated) yielded a logP of -0.76. As for `CC(=O)NC(C)C(=O)NC(CCC(=O)O)C(=O)NC(C)C(=O)NC(C)(C)C` (stereo not drawn) (Ac-Ala-Glu-Ala-NHtBu; configuration not given here), the logP was -0.67.

`COCC(O)Cn1c(C)cnc1[N+](=O)[O-]` (configuration not stated): the lipophilicity (logP) is 0.03.

`COc1ccc2cc(C(C)C(=O)OCC(=O)N(C)C)ccc2c1` (configuration not stated): the logP stood at 2.05. Molecule `Cc1cccc(C)c1NC(=O)c1cccc(CN2CCCCC2)c1` gave a logP of 3.47. The figure for `CCCCCc1cc(CCCCN2CC(=O)c3ccccc3C2=O)c2c(c1)OC(C)(C)C1CC=C(C)CC21` (configuration not stated) is 9.07.

In turn, `COP(=O)(OC)O/C(C)=C/C(=O)OC(C)c1ccccc1` (configuration not stated) gave a logP of 3.3.

For the molecule `Nc1ccccc1S(N)(=O)=O`, the logP is 0.22. With `COC(=O)NCCn1c([N+](=O)[O-])cnc1C` the figure was 0.02; with `CC(C)(C)C(COc1ccc(C(F)(F)F)cc1)OC(=O)n1ccnc1` (configuration not stated), 4.15; with `S=C=NCCCc1ccccc1`, 3.8. In the case of `Clc1cc(Cl)cc(-c2c(Cl)cc(Cl)c(Cl)c2Cl)c1`, the logP was 7.1. With `COC(=O)n1cnc(CC(NC(=O)C2CCC(=O)N2)C(=O)N2CCCC2C(N)=O)c1` (configuration not stated) the figure was -1.88; with `CCN1C(=O)C(=O)c2ccccc2C1=O`, 1.13; with `COC(=O)c1ccccc1CS(=O)(=O)Nc1nc(OC)cc(OC)n1`, 2.4.

`Cc1nc2sccn2c(=O)c1CCN1CCC(=C(c2ccc(F)cc2)c2ccc(F)cc2)CC1` had a logP of 5.2. The figure for `Cc1ncc([N+](=O)[O-])n1CCNC(=O)OC1CCCCC1` is 2.01; for `CCC(=O)C(CS(=O)(=O)c1ccccc1)c1ccc(C)cc1` (configuration not stated) it is 2.7; for `COc1cc(C)c2c(c1OC)-c1ccc(OC)c(=O)cc1C(NC(=O)c1ccc([N+](=O)[O-])cc1)CC2` (configuration not stated) it is 2.96.

Take `CS(=O)(=O)c1ccc2ccccc2c1`: the logP is 1.74.

Consider `CCN1C(=O)C(=O)c2ccc(OC)cc2C1=O`, for which the logP was 1.49. With `CCCC(=O)OC(C(=O)NC1C(=O)N2C(C(=O)O)=C(C)CSC12)c1ccccc1` (configuration not stated) the figure was 1.89.

`COc1ncnc2c1ncn2C1OC(CO)CC1F` (configuration not stated) returned a logP of 0.25.

As to `Cc1nc(Br)c([N+](=O)[O-])n1C`, the logP worked out at 0.87.

Molecule `COCCCNC(=S)Cn1cnc([N+](=O)[O-])n1` registered a logP of 0.63. The figure for `CCCn1c(=O)c2[nH]c(-c3ccc(Cl)cc3N)nc2n(CCC)c1=O` is 4.02; for `c1ccc(-c2nnn[nH]2)cc1` it is 1.65. Consider `C=CCn1cnc2c(=O)[nH]c(Nc3ccccc3)nc21`, for which the logP came out at 1.75. `O=c1[nH]nc(SCc2ccccc2)[nH]1`: the logP amounted to 1.47.

For the molecule `COCC(O)Cn1ncc([N+](=O)[O-])n1` (configuration not stated), the logP is -0.07. `CCCCOc1ccccc1NC(=O)OCCN1CCOCC1` displayed a log partition coefficient (logP) of 3.25. The figure for `CCC(=O)c1ccc2c(c1)N(CC(C)N(C)C)c1ccccc1S2` (configuration not stated) is 4.79. With `C#CCOc1c(Cl)cc(NC=NO)cc1Cl` the figure was 2.8; with `CCC(C)N1C(=O)C(=O)c2ccccc2C1=O` (configuration not stated), 2.15. With `CCOc1ccccc1NC(=O)OCCN1CCOCC1` the figure was 2.27; with `COCCn1cnc2c(=O)[nH]c(Nc3ccccc3)nc21`, 1.2. In turn, `CCC(=O)C(CS(=O)(=O)c1ccc(C)cc1)c1ccc(C)cc1` (configuration not stated) returned a logP of 3.3.

On to `CCCNC(=O)c1ccccc1`, for which the logP stood at 1.72. With `N#CC(C#N)=NNc1c(Cl)cccc1Cl` the figure was 4.51; with `C#CCOc1c(Cl)cc(NC=NOC(C)C)cc1Cl`, 3.9.

With `O=C1CN=C(c2ccccc2)c2cc(C(F)(F)F)ccc2N1`, the logP stood at 3.1.

`Cc1ccc(NC(=O)c2[nH]nc(C)c2[N+](=O)[O-])cc1`: the logP amounted to 2.34. The figure for `CC1=C(/C=C/C(C)=C/C=C/C(C)=C/CO)C(C)(C)CCC1` is 5.68; for `CSC1=NCCN1c1ccc([N+](=O)[O-])o1` it is 1.19; for `CCOc1ccc(C2(C(=O)OC)CC2(Cl)Cl)cc1` (configuration not stated) it is 4.1.

Consider `COCC(O)Cn1cc([N+](=O)[O-])nn1` (configuration not stated), for which the logP is -0.36. `C#CCC(O)(c1cccnc1)c1ccc2ccccc2c1` (configuration not stated) returned a logP of 2.14. The figure for `CC(C)CN1C(=O)NC(=O)C(=O)C1=O` is 0.76; for `CCC(=O)C1(c2cccc(O)c2)CCN(C)CC1` it is 1.02; for `O=C(Cc1ccccc1)Nc1cccc(C(F)(F)F)c1` it is 3.84.
